Where a name gives a salt, the structure may show the parent alone.
Key:
[1] = biological target: human C1 (Homo sapiens, UniProt P09871); assay: Test Code 026 (C1 inhibitor): activated human C1 destroys fluid phase human C2 in presence of C4; type: biochemical; details: activity in wells, twofold serial dilution; higher well number indicates higher activity
Excerpt: (§1) An active inhibitor protects C2 from C1 and C4; (ii) Test Code 035 (C3-C9 inhibitor)--This test determines the ability of the late components of human complement (C3-C9) to lyse EAC 142 in the presence of appropriate dilutions of the test compound. An active inhibitor protects EAC 142 from lysis by human C3-C9; (iii) Test Code 036 (C-Shunt inhibitor)--In this test human erythrocytes rendered fragile are lysed in autologous serum via the shunt pathway activated by cobra venom factor in the presence of appropriate dilutions of the test compound. Inhibition of the shunt pathway results in failure of lysis; (iv) Forssman Vasculitis Test--Here, the well known complement dependent lesion, Forssman vasculitis, is produced in guinea pigs by intradermal injection of rabbit anti-Forssman antiserum. The lesion is measured in terms of diameter, edema and hemorrhage and the extent to which a combined index of these is inhibited by prior intraperitoneal injection of the test compound at 200 mg/kg is then reported, unless otherwise stated; (v) Forssman Shock Test--Lethal shock is produced in guinea pigs by an i.v. injection of anti-Forssman antiserum and the harmonic mean death time of treated guinea pigs is compared with that of the simultaneous controls; (vi) Complement Level Reduction Test--In this test, the above dosed guinea pigs, or others are bled for serum and the complmenet level is determined in undiluted serum by the capillary tube method of U.S. Pat. No. 3,876,376 and compared to undosed control guinea pigs; (vii) Cap 50 Test--Here, appropriate amounts of the test compound are added to a pool of guinea pig serum in vitro, after which the undiluted serum capillary tube assay referred to above is run. The concentration of compound inhibiting 50% is reported.
(§2) **Activity in wells, a serial dilution assay; higher well number indicate
(§3) higher activity. The serial dilutions are twofold-

[2] = tested on: whole complement; assay: In vivo activity (Guinea Pig): serum whole complement by capillary tube assay after dosing; details: Intraperitoneal, 200 mg/kg
[3] = tested on: human complement (C3-C9); assay: Test Code 035 (C3-C9 inhibitor): lysis of EAC 142 by late components of human complement; type: biochemical; details: activity in wells, twofold serial dilution; higher well number indicates higher activity
Excerpt: as §1, §2, §3

[4] = tested on: shunt pathway; assay: Test Code 036 (C-Shunt inhibitor): lysis of human erythrocytes in autologous serum via shunt pathway activated by cobra venom factor; type: biochemical; details: activity in wells, twofold serial dilution; higher well number indicates higher activity
Excerpt: as §1, §2, §3

Chain of human C1 (P09871 16-688): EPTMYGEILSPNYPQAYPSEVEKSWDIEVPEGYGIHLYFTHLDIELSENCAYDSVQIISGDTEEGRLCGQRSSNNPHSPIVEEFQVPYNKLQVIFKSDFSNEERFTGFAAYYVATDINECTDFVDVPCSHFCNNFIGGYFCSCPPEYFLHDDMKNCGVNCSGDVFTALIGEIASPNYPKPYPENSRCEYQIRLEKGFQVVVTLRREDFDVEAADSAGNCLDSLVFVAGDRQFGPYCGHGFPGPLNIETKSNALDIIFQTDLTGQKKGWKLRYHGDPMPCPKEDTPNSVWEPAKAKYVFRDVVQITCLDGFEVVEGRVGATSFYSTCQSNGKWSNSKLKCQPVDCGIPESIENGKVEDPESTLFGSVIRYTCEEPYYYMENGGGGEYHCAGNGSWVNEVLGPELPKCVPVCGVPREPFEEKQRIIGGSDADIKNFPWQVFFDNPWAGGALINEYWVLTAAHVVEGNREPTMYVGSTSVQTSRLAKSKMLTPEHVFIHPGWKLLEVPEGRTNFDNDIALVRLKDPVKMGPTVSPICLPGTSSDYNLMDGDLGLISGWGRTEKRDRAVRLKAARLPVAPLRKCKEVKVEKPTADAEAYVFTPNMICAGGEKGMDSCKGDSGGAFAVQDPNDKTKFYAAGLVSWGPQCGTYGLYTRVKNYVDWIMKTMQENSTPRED
Chain of human C1 (P00736 18-705 partner): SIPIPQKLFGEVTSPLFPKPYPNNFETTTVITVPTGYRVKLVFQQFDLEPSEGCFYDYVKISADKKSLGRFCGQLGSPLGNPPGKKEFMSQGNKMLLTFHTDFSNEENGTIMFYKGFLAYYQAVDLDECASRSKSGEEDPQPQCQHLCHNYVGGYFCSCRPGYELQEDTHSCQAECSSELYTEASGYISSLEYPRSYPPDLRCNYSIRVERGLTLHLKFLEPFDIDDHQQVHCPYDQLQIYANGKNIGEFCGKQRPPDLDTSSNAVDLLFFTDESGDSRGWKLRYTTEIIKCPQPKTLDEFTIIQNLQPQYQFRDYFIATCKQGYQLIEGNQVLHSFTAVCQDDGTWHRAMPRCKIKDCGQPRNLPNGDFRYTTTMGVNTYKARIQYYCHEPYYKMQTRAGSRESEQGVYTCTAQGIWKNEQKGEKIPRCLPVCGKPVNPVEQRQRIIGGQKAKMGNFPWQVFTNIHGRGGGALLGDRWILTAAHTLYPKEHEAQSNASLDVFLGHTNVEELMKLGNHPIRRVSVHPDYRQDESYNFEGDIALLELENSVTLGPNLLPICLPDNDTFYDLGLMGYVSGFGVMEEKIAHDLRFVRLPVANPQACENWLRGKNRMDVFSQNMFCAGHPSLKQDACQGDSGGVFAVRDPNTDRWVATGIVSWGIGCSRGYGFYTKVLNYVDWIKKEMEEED
Chain of human C1 (P02745 23-245 partner): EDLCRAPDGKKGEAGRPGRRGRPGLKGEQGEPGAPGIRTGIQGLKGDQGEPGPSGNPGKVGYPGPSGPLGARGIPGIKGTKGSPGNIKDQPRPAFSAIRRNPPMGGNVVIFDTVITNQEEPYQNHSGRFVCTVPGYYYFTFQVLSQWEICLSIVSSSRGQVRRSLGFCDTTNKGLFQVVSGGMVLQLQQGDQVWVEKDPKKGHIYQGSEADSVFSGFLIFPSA
Chain of human C1 (P02746 28-253 partner): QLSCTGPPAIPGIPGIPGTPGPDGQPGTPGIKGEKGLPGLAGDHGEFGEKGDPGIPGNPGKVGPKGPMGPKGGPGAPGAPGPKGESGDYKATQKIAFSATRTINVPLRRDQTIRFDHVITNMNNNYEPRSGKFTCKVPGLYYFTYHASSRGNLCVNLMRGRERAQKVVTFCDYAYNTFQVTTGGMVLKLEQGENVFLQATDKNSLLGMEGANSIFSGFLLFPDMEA
Chain of human C1 (P02747 29-245 partner): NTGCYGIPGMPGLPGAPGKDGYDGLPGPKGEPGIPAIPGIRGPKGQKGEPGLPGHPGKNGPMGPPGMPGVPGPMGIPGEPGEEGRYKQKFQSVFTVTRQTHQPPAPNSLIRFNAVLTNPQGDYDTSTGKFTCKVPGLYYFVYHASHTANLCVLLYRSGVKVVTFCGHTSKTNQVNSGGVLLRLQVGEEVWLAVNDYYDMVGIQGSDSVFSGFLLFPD

Row | Compound | C1 026 Wells [1] | In vivo Activity (Guinea Pig) % Inhibition ([2]; 30 min) [%] | In vivo Activity (Guinea Pig) % Inhibition ([2]; 60 min) [%] | In vivo Activity (Guinea Pig) % Inhibition ([2]; 120 min) [%] | C-Late 035 Wells [3] | Shunt Inhibition 036 Wells [4]
1 | O=S(=O)(O)OC[C@H]1O[C@H](OC[C@H]2O[C@H](OS(=O)(=O)O)[C@H](OS(=O)(=O)O)[C@@H](OS(=O)(=O)O)[C@@H]2OS(=O)(=O)O)[C@H](OS(=O)(=O)O)[C@@H](OS(=O)(=O)O)[C@H]1OS(=O)(=O)O | +8 Wells |  |  |  |  | 
2 | O=S(=O)(O)OC[C@H]1O[C@@H](OC[C@H]2O[C@H](OC[C@H]3O[C@H](OS(=O)(=O)O)[C@H](OS(=O)(=O)O)[C@@H](OS(=O)(=O)O)[C@@H]3OS(=O)(=O)O)[C@H](OS(=O)(=O)O)[C@@H](OS(=O)(=O)O)[C@H]2OS(=O)(=O)O)[C@H](OS(=O)(=O)O)[C@@H](OS(=O)(=O)O)[C@H]1OS(=O)(=O)O [drawing 6, O-β-D-galactopyranosyl(1→6)-O-α-D-galactopyranosyl(1→6)-α-D-glucopyranose [gal 1β,6 gal 1α,6 glc] undecakis (H-sulfate), undecasalt with trimethylamine] | +9 Wells |  |  |  |  | 
3 | O=S(=O)(O)OC[C@H]1O[C@@H](OC[C@H]2O[C@H](OC[C@H]3O[C@H](OS(=O)(=O)O)[C@H](OS(=O)(=O)O)[C@@H](OS(=O)(=O)O)[C@@H]3OS(=O)(=O)O)[C@H](OS(=O)(=O)O)[C@@H](OS(=O)(=O)O)[C@H]2OS(=O)(=O)O)[C@H](OS(=O)(=O)O)[C@@H](OS(=O)(=O)O)[C@H]1OS(=O)(=O)O [drawing 7, O-β-D-galactopyranosyl(1→6)-O-α-D-galactopyranosyl(1→6)-α-D-glucopyranose [gal 1β,6 gal 1α,6 glc] undecakis (H-sulfate), undecasodium salt] | +9 Wells | -30 | -17 | -56 |  | 
4 | O=S(=O)(O)OC[C@H]1O[C@H](OC[C@H]2O[C@@H](OC[C@H]3O[C@H](OC[C@H]4O[C@H](OS(=O)(=O)O)[C@H](OS(=O)(=O)O)[C@@H](OS(=O)(=O)O)[C@@H]4OS(=O)(=O)O)[C@H](OS(=O)(=O)O)[C@@H](OS(=O)(=O)O)[C@H]3OS(=O)(=O)O)[C@H](OS(=O)(=O)O)[C@@H](OS(=O)(=O)O)[C@@H]2OS(=O)(=O)O)[C@H](OS(=O)(=O)O)[C@@H](OS(=O)(=O)O)[C@H]1OS(=O)(=O)O [drawing 8, O-α-D-galactopyranosyl(1→6)-O-β-D-glucopyranosyl(1→6)-O-α-D-galactopyranosyl(1→6)-α-D-glucopyranose [gal 1α,6 glc 1β,6 gal 1α,6 glc] tetradecakis (H-sulfate), tetradecasalt with trimethylamine] | +9 Wells |  |  |  | +1 Wells | +5 Wells
5 | O=S(=O)(O)OC[C@H]1O[C@@H](OC[C@H]2O[C@H](OC[C@H]3OC(OS(=O)(=O)O)[C@H](OS(=O)(=O)O)[C@@H](OS(=O)(=O)O)[C@@H]3OS(=O)(=O)O)[C@H](OS(=O)(=O)O)[C@@H](OS(=O)(=O)O)[C@H]2OS(=O)(=O)O)[C@H](OS(=O)(=O)O)[C@@H](OS(=O)(=O)O)[C@@H]1O[C@H]1O[C@H](COS(=O)(=O)O)[C@@H](OS(=O)(=O)O)[C@H](OS(=O)(=O)O)[C@H]1OS(=O)(=O)O (stereo partly drawn) [drawing 10, O-α-D-glucopyranosyl(1→4)-O-β-D-glucopyranosyl(1→6)-O-α-D-galactopyranosyl(1→6)-D-glucopyranose [glc 1α,4 glc 1β,6 gal 1α,6 glc] tetradecakis (H-sulfate), tetradecasalt with trimethylamine] | +9 Wells |  |  |  | +1 Wells | +5 Wells
6 | O=S(=O)(O)OC[C@H]1O[C@@H](OC[C@H]2O[C@H](OC[C@H]3O[C@H](OS(=O)(=O)O)[C@H](OS(=O)(=O)O)[C@@H](OS(=O)(=O)O)[C@@H]3OS(=O)(=O)O)[C@H](OS(=O)(=O)O)[C@@H](OS(=O)(=O)O)[C@H]2OS(=O)(=O)O)[C@H](OS(=O)(=O)O)[C@@H](OS(=O)(=O)O)[C@@H]1O[C@@H]1O[C@H](COS(=O)(=O)O)[C@@H](OS(=O)(=O)O)[C@H](OS(=O)(=O)O)[C@H]1OS(=O)(=O)O [drawing 12, O-β-D-glucopyranosyl(1→4)-O-β-D-glucopyranosyl(1→6)-O-α-D-galactopyrranosyl(1→6)-α-D-glucopyranose [glc 1β,4 glc 1β,6 gal 1α,6 glc] tetradecakis (H-sulfate), tetradecasalt with trimethylamine] | +9 Wells |  |  |  |  | +4 Wells
7 | O=S(=O)(O)OC[C@H]1O[C@@H](OC[C@H]2O[C@H](OC[C@H]3O[C@H](OS(=O)(=O)O)[C@H](OS(=O)(=O)O)[C@@H](OS(=O)(=O)O)[C@@H]3OS(=O)(=O)O)[C@H](OS(=O)(=O)O)[C@@H](OS(=O)(=O)O)[C@H]2OS(=O)(=O)O)[C@H](OS(=O)(=O)O)[C@@H](OS(=O)(=O)O)[C@@H]1O[C@@H]1O[C@H](COS(=O)(=O)O)[C@@H](OS(=O)(=O)O)[C@H](OS(=O)(=O)O)[C@H]1OS(=O)(=O)O [drawing 13, O-β-D-glucopyranosyl(1→4)-O-β-D-glucopyranosyl(1→6)-O-α-D-galactopyranosyl(1→6)-α-D-glucopyranose [glc 1β,4 glc 1β,6 gal 1α,6 glc] tetradecakis (H-sulfate), tetradecasodium salt] | +9 Wells | -25 | -34 | -60 |  | 
8 | O=S(=O)(O)OC[C@H]1O[C@@H](OC[C@H]2O[C@H](OC[C@H]3O[C@H](OS(=O)(=O)O)[C@H](OS(=O)(=O)O)[C@@H](OS(=O)(=O)O)[C@@H]3OS(=O)(=O)O)[C@H](OS(=O)(=O)O)[C@@H](OS(=O)(=O)O)[C@H]2OS(=O)(=O)O)[C@H](OS(=O)(=O)O)[C@@H](OS(=O)(=O)O)[C@@H]1O[C@H]1O[C@H](COS(=O)(=O)O)[C@@H](O[C@H]2O[C@H](COS(=O)(=O)O)[C@@H](OS(=O)(=O)O)[C@H](OS(=O)(=O)O)[C@H]2OS(=O)(=O)O)[C@H](OS(=O)(=O)O)[C@H]1OS(=O)(=O)O [drawing 14, O-α-D-glucopyranosyl(1→4)-O-α-D-glucopyranosyl(1→4)-O-β-D-glucopyranosyl(1→6)-O-α-D-galactopyranosyl(1→6)-α-D-glucopyranose [(glc 1α,4)2 glc 1β,6 gal 1α,6 glc] heptadecakis(H-sulfate), heptadecasalt with trimethylamine] | +9 Wells |  |  |  | +1 Wells | 
9 | O=S(=O)(O)OC[C@H]1O[C@@H](OC[C@H]2O[C@H](OC[C@H]3O[C@H](OS(=O)(=O)O)[C@H](OS(=O)(=O)O)[C@@H](OS(=O)(=O)O)[C@@H]3OS(=O)(=O)O)[C@H](OS(=O)(=O)O)[C@@H](OS(=O)(=O)O)[C@H]2OS(=O)(=O)O)[C@H](OS(=O)(=O)O)[C@@H](OS(=O)(=O)O)[C@@H]1O[C@H]1O[C@H](COS(=O)(=O)O)[C@@H](O[C@H]2O[C@H](COS(=O)(=O)O)[C@@H](OS(=O)(=O)O)[C@H](OS(=O)(=O)O)[C@H]2OS(=O)(=O)O)[C@H](OS(=O)(=O)O)[C@H]1OS(=O)(=O)O [drawing 15, O-α-D-glucopyranosyl(1→4)-O-α-D-glucopyranosyl(1→4)-O-β-D-glucopyranosyl(1→6)-O-α-D-galactopyranosyl(1→6)-α-D-glucopyranose [(glc 1α,4)2 glc 1β,6 gal 1α,6 glc] heptadecakis(H-sulfate), heptadecasodium salt] | +9 Wells |  |  |  | +2 Wells | +6 Wells

From US4221907A, “Substituted O-α-D and O-β-D-multi-galactopyranosyl and glucopyranosyl 1→4 and 1→6 galactopyranosyl 1→6 α-D-glucopyranoses” (American Cyanamid Company, priority 1979, dated 1980)
